Reference: PubChem BioAssay (NCI)
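These data come from cells grown in 96-well plates and exposed to compound for 48 hours at five concentrations. GI50: concentration for 50% inhibition of growth. TGI: concentration producing complete growth inhibition.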

Key:
Assay in all cases: growth of human tumour cells (NCI), 48 h
[1] = tested on: SK-MEL-2 melanoma
[2] = tested on: UO-31 renal
[3] = tested on: RXF 393 renal
[4] = tested on: OVCAR-3 ovarian
[5] = tested on: HCC-2998 colon
[6] = tested on: NCI-H226 lung
[7] = tested on: U251 CNS
[8] = tested on: KM12 colon
[9] = tested on: OVCAR-5 ovarian
[10] = tested on: SNB-75 CNS

With `CNC(=O)CN(CC(N)=O)C(N)=O` the TGI [1] was > 100 µM, the TGI [2] was > 100 µM and the TGI [3] was > 100 µM. For the same molecule, the TGI [4] was > 100 µM, the TGI [5] was > 100 µM and the TGI [6] was > 100 µM. The TGI [7] was > 100 µM, the TGI [8] was > 100 µM and the TGI [9] was > 100 µM. The TGI [10] was > 100 µM.

Molecule `Cc1cc(Cl)ccc1NS(=O)(=O)c1ccc(-c2cnc(C3CC3)o2)cc1` has a GI50 [1] of 0.677 µM, a TGI [1] of 22 µM and a GI50 [2] of 0.619 µM. It also gave a TGI [2] of 16.9 µM, a GI50 [3] of 0.268 µM and a TGI [3] of 17.7 µM. The GI50 [4] was 0.186 µM, the TGI [4] was 5.41 µM and the GI50 [5] was 0.463 µM. It also gave a TGI [5] of 12 µM, a GI50 [6] of 1.04 µM and a TGI [6] of 16.5 µM. It also gave a GI50 [7] of 0.384 µM, a TGI [7] of 15.7 µM and a GI50 [8] of 0.211 µM. It also gave a TGI [8] of 15.3 µM, a GI50 [9] of 0.572 µM and a TGI [9] of 17.2 µM. For the same molecule, the GI50 [10] was 0.153 µM and the TGI [10] was 0.667 µM.

With `Oc1[nH]c2cc(Cl)ccc2c1/C=c1/ccc2c(c1)N=C(c1cc(F)cc(F)c1)N=2` the GI50 [1] was 2.08 µM, the TGI [1] was 7.03 µM and the GI50 [2] was 3.68 µM. For the same molecule, the TGI [2] was 19 µM, the GI50 [3] was 2.08 µM and the TGI [3] was 6.27 µM. It also gave a GI50 [4] of 1.41 µM, a TGI [4] of 3.3 µM and a GI50 [5] of 4.86 µM. For the same molecule, the TGI [5] was 17.2 µM, the GI50 [6] was 5.78 µM and the TGI [6] was 31 µM. For the same molecule, the GI50 [7] was 1.06 µM, the TGI [7] was 2.89 µM and the GI50 [8] was 2.2 µM. The TGI [8] was 7.06 µM, the GI50 [9] was 6.34 µM and the TGI [9] was 21.5 µM. For the same molecule, the GI50 [10] was 1.6 µM and the TGI [10] was 6.07 µM.

For `COc1ccc(S(=O)(=O)N(C)CC(=O)O)cc1`, the TGI [1] was > 100 µM, the TGI [2] was > 100 µM and the TGI [3] was > 100 µM. The TGI [4] was > 100 µM, the TGI [5] was > 100 µM and the TGI [6] was > 100 µM. For the same molecule, the TGI [7] was > 100 µM, the TGI [8] was > 100 µM and the TGI [9] was > 100 µM. The TGI [10] was > 100 µM.

`Cc1cc(C(O)CN(C)C)cc2c1ccc1cc(C(C)C)ccc12` (stereo unspecified) gave a GI50 [1] of 2 µM, a TGI [1] of 3.92 µM and a GI50 [2] of 1.58 µM. The TGI [2] was 3.72 µM, the GI50 [3] was 1.78 µM and the TGI [3] was 3.36 µM. For the same molecule, the GI50 [4] was 1.92 µM, the TGI [4] was 3.6 µM and the GI50 [5] was 1.57 µM. It also gave a TGI [5] of 3.16 µM, a GI50 [6] of 2.66 µM and a TGI [6] of 8.84 µM. The GI50 [7] was 1.92 µM, the TGI [7] was 3.53 µM and the GI50 [8] was 1.82 µM. For the same molecule, the TGI [8] was 3.32 µM, the GI50 [9] was 2.02 µM and the TGI [9] was 4.36 µM. For the same molecule, the GI50 [10] was 1.72 µM and the TGI [10] was 3.67 µM.

In the case of `COc1cccc(/C=C/C(=O)c2cc3c(N)c(C(=O)Nc4cccc5ccccc45)sc3nc2C)c1`, the GI50 [1] is reported as 1.71 µM, the TGI [1] is reported as > 50 µM and the GI50 [2] is reported as 0.889 µM. The TGI [2] was 2.08 µM, the GI50 [3] was 0.803 µM and the TGI [3] was 1.9 µM. The GI50 [4] was 0.892 µM, the TGI [4] was 2.07 µM and the GI50 [5] was 1.14 µM. For the same molecule, the TGI [5] was 2.79 µM, the GI50 [6] was 1.2 µM and the TGI [6] was 3.27 µM. For the same molecule, the GI50 [7] was 0.97 µM, the TGI [7] was 2.06 µM and the GI50 [8] was 1.4 µM. The TGI [8] was 4.77 µM, the GI50 [9] was 1.42 µM and the TGI [9] was 4.6 µM. For the same molecule, the GI50 [10] was 1.02 µM and the TGI [10] was 3.15 µM.

In the case of `C=[CH][Sn]([CH]=C)([O]c1cccc2cccnc12)[O]c1cccc2cccnc12`, the GI50 [1] is reported as 1.72 µM, the TGI [1] is reported as 7.87 µM and the GI50 [2] is reported as 3.25 µM. For the same molecule, the TGI [2] was 9.31 µM, the GI50 [3] was 0.28 µM and the TGI [3] was 1.21 µM. For the same molecule, the GI50 [4] was 2.53 µM, the TGI [4] was 10 µM and the GI50 [5] was 4.44 µM. For the same molecule, the TGI [5] was 8.85 µM, the GI50 [6] was 2.95 µM and the TGI [6] was 9.47 µM. It also gave a GI50 [7] of 2.58 µM, a TGI [7] of 6.67 µM and a GI50 [8] of 3.2 µM. The TGI [8] was 7.34 µM, the GI50 [9] was 5.16 µM and the TGI [9] was 13.8 µM. It also gave a GI50 [10] of 3.95 µM and a TGI [10] of 14 µM.

`Oc1ccc(Cl)cc1Cc1cc(Cl)ccc1O` showed a GI50 [1] of 2.21 µM, a TGI [1] of 5.02 µM and a GI50 [2] of 2.06 µM. The TGI [2] was 6.48 µM, the GI50 [3] was 2.38 µM and the TGI [3] was 8.04 µM. The GI50 [4] was 2.63 µM, the TGI [4] was 8.35 µM and the GI50 [5] was 2.36 µM. For the same molecule, the TGI [5] was 5.78 µM, the GI50 [6] was 3.28 µM and the TGI [6] was 14.4 µM. It also gave a GI50 [7] of 2.32 µM, a TGI [7] of 11.6 µM and a GI50 [8] of 3.06 µM. For the same molecule, the TGI [8] was 11.1 µM, the GI50 [9] was 4.79 µM and the TGI [9] was 19.6 µM. It also gave a GI50 [10] of 4.09 µM and a TGI [10] of 24.2 µM.

With `CC1(C)OC2C(COS(N)(=O)=O)SC(n3cnc4cncnc43)C2O1` (stereo unspecified) the GI50 [1] was > 100 µM, the TGI [1] was > 100 µM and the GI50 [2] was > 100 µM. The TGI [2] was > 100 µM, the GI50 [3] was > 100 µM and the TGI [3] was > 100 µM. For the same molecule, the GI50 [4] was > 100 µM, the TGI [4] was > 100 µM and the GI50 [5] was > 100 µM. For the same molecule, the TGI [5] was > 100 µM, the GI50 [6] was > 100 µM and the TGI [6] was > 100 µM. The GI50 [7] was > 100 µM, the TGI [7] was > 100 µM and the GI50 [8] was > 100 µM. The TGI [8] was > 100 µM, the GI50 [9] was > 100 µM and the TGI [9] was > 100 µM. For the same molecule, the GI50 [10] was > 100 µM and the TGI [10] was > 100 µM.

For `S=c1nc(-c2ccnc(-c3nc(=S)[nH][nH]3)c2)[nH][nH]1`, the TGI [1] was > 100 µM, the TGI [2] was > 100 µM and the TGI [3] was > 100 µM. For the same molecule, the TGI [4] was > 100 µM, the TGI [5] was > 100 µM and the TGI [6] was > 100 µM. The TGI [7] was > 100 µM, the TGI [8] was > 100 µM and the TGI [9] was > 100 µM.

In the case of `COc1cc([N+](=O)[O-])c2ncccc2c1[N+](=O)[O-]`, the GI50 [1] is reported as 4.17 µM, the TGI [1] is reported as 12.3 µM and the GI50 [3] is reported as 4.37 µM. For the same molecule, the TGI [3] was 17.5 µM, the GI50 [4] was 2.68 µM and the TGI [4] was 6.72 µM. It also gave a GI50 [5] of 4.82 µM, a TGI [5] of 17.8 µM and a GI50 [6] of 15.3 µM. It also gave a TGI [6] of 31.5 µM, a GI50 [7] of 4.45 µM and a TGI [7] of 16.6 µM. It also gave a GI50 [8] of 2.98 µM, a TGI [8] of 10.5 µM and a GI50 [9] of 16.4 µM. For the same molecule, the TGI [9] was 31.1 µM, the GI50 [10] was 3.77 µM and the TGI [10] was 18 µM.

For `O=C1CN(/N=C/c2ccc(-c3ccc(F)cc3)o2)C(=O)N1`, the TGI [1] was > 100 µM, the TGI [2] was > 100 µM and the TGI [3] was > 100 µM. The TGI [4] was > 100 µM, the TGI [5] was > 100 µM and the TGI [6] was 88.5 µM. The TGI [7] was > 100 µM, the TGI [8] was > 100 µM and the TGI [9] was > 100 µM.
